Source: PubChem BioAssay AID2305 (GlaxoSmithKline (GSK), 2010)
Several values for one entry are separate records, joined by “and”; a condition that tells them apart may be missing. Identical values can stand only once.

System: P. falciparum 3D7 growth, pLDH absorbance
Assay: blood-stage malaria parasite growth potency – strain 3D7, dose response (AID 2305)

| Structure (SMILES) | IC50 |
| --- | --- |
| COc1cc(Nc2ccnc3ccc(C(C)(C)C)cc23)cc(OC)c1OC | 610 nM |
| O=C(Nc1ccc(Cn2nc(Cl)c(N3CCNCC3)cc2=O)cc1)Nc1ccc(-c2ccccc2)cc1 | 750 nM |
| CCOC(=O)c1c(C)noc1Nc1cccc(C)c1C | 420 nM |
| COc1cc(C(C)C)ccc1N1CCN(CCCCNC(=O)c2ccc(NC(=O)c3ccc(Cl)cc3)cc2)CC1 | 580 nM |
| O=C(Nc1cccc(CN2CCN(Cc3ccc(O)cc3)CC2)c1)c1cccc(C(F)(F)F)c1 | 1210 nM |
| Cc1cc(N[C@@H](Cc2ccccc2)C(=O)NCCc2ccccc2)nc(NCCc2ccc(F)cc2)n1 | 660 nM |
| CC1CN(c2ccc(NC(=O)c3cccs3)cc2)CCN1Cc1cccc(F)c1 (stereo unspecified) | 490 nM |
| COc1cccc(-c2nn(C)c3sc(C(=O)NCCN(C)Cc4ccccc4)cc23)c1 | 810 nM |
| COCCNCc1cccc(-c2ccc(CN(C(=O)NC3CCCCC3)C3CCN(Cc4ccccc4)CC3)cc2)c1 | 760 nM |
| COc1cccc2c(NN=Cc3ccccc3[N+](=O)[O-])ccnc12 | 590 nM |
| COc1ccc2nccc(N(C)CC3(O)CCN(CCc4ccc5c(c4)OCCO5)CC3)c2n1 | 140 nM |
| CC(C)Oc1ccc2ccccc2c1CNCCCCCCNCc1c(OC(C)C)ccc2ccccc12 | 610 nM |
| CC(=O)Nc1nc(N)c2c(ccc3c2ccn3CC(C)C)n1 | 70 nM |
| O=C(/C=C/c1ccc(Cl)cc1)NCCCCCN1CCC(C(=O)Nc2ccc(Cl)cc2)CC1 | 830 nM |
| CCN(CC)CCN(Cc1ccc(-c2ccc(C(F)(F)F)cc2)cc1)C(=O)Cn1c(CCc2cccc(F)c2F)c(C)c(=O)c2ccccc21 | 940 nM |
| Cc1nnsc1C(=O)Nc1cccc(-c2ccc(-c3nc4ccc(F)cc4[nH]3)s2)c1 | 890 nM |
| NC(=O)CCC(NC(=O)CNC(=O)Nc1cccc(C(F)(F)F)c1)C(=O)O (stereo unspecified) | 800 nM |
| Cc1ccccc1-c1cc(=O)c2cc(NC(=O)c3cccs3)ccc2o1 | 220 nM |
| CCCCCCN1CCCN(Cc2cccc(C(=O)Nc3ccc(C(C)(C)C)cc3)c2)CC1 | 940 nM |
| CS(=O)(=O)CCNCc1cccc(-c2ccc3c(Nc4cc(O)c(Cl)cc4F)ccnc3c2)c1 | 250 nM |
| CCOc1ccc(-c2nc(NC(=O)Cc3cccc(OC)c3)sc2C)cc1 | 730 nM |
| Cc1cc(CNCCCCCNCc2ccc(Cl)cc2)ccc1O | 710 nM |
| Cn1cncc1C(=O)Nc1cccc(-c2csc(-c3nc4ccccc4[nH]3)c2)c1 | 450 nM |
| Nc1ncc(Cc2ccc3c(ccc4ccccc43)c2)c(N)n1 | 760 nM |
| CN(C)CCNc1cc(-c2cccnc2)nc(-c2ccncc2)n1 | 600 nM |
| O=C(/C=C/c1ccc(Cl)c(Cl)c1)NC1CCC(CN2CCC(c3c[nH]c4cc(C(F)(F)F)ccc34)CC2)CC1 (stereo unspecified) | 900 nM and 280 nM |

| Structure (SMILES) | IC50 |
| --- | --- |
| COc1ccccc1Cn1ccnc1SCC(=O)Nc1cc(C(F)(F)F)ccc1Cl | 100 nM |
| CC(C)CCNc1nc(NCCCc2ccccc2)c2cc(O)ccc2n1 | 170 nM |
| COc1ccc(CCNC(=O)c2cc(C)ccc2O)cc1-c1ccc(C(C)(C)C)cc1 | 480 nM |
| CCCCCCCC1CCN(C[C@H](O)c2ccnc3ccc(OC)cc23)CC1 | 960 nM |
| CCCCNCc1ccc(OCc2cccc(COc3ccc(CNCCCC)cc3)c2)cc1 | 320 nM |
| Oc1ccccc1CN1CCCC(COC(c2ccc(F)cc2)c2ccc(F)cc2)C1 (stereo unspecified) | 780 nM |
| Cc1nc2nc(N)nc(N)c2c(C)c1Cc1cccs1 | 780 nM |
| CSc1sc(NC(=O)Nc2cccc(C(F)(F)F)c2)cc1C#N | 910 nM |
| CCOc1cc(Cl)c(C(C)NC(=O)c2cccc(OC)c2)cc1OCC (stereo unspecified) | 960 nM |
| CCN1CCC(N2CCC(C(=O)Nc3cccc(-c4cccc(Cl)c4)c3)CC2)CC1 | 1080 nM |
| CC1CCN(CC[C@H]2CCCN2S(=O)(=O)c2cccc(NC(=O)c3cc4ccccc4s3)c2)CC1 | 830 nM |
| CCOc1cc(C(=O)NCC2CCN(CC3CCCCC3)CC2)ccc1-c1nc2ccc(Cl)cc2[nH]1 | 560 nM |
| COc1ccc(OC)c(CC2c3ccc(Br)c(O)c3CCN2C)c1 (stereo unspecified) | 750 nM |
| O=C(/C=C/c1cccc(Cl)c1)NCCCCCN1CCC(c2c[nH]c3ccccc23)CC1 | 990 nM |
| Nc1nccc2ccc(-c3ccc4ncccc4c3)cc12 | 110 nM |
| Cc1ccc(S(=O)(=O)c2nc(S(=O)(=O)c3ccccc3)sc2NCC2CCCO2)cc1 (stereo unspecified) | 1020 nM |
| Cc1ccnc2nc(C(=O)Nc3cc(Cl)ccc3N3CCOCC3)nn12 | 1240 nM |
| CCN(CCCN1CCCCC1)c1cc(C)nc(Nc2ccc(Br)cc2F)n1 | 550 nM |
| FC(F)(F)c1cccc(Nc2nc(-n3ccnc3)nc(-n3ccnc3)n2)c1 | 720 nM |
| CC(=O)c1ccc(N2CCN(C(=O)Nc3ccc(Cl)cc3)CC2)cc1 | 980 nM |
| O=C(NCCc1ccccc1)N(Cc1ccccc1-c1cccc(CNC2CCCC2)c1)C1CCN(Cc2ccccc2)CC1 | 830 nM |
| Fc1ccc2nc(-c3cccc(-c4cccc(CN5CCN(c6cnccn6)CC5)c4)c3)[nH]c2c1 | 1060 nM |
| CC[C@H](C)CNC(=O)c1cncc(-c2ccc(CNCCCc3ccccc3)cc2)c1 | 730 nM |
| Cc1cccc2[nH]c(-c3cc(-c4cccc(Cl)c4)cnc3N)nc12 | 120 nM |
| COc1c(C2CCN(CCCCNC(=O)c3ccc(-c4ccc(Cl)cc4)c(OCCN(C)C)c3)CC2)ccc2c1CCCC2 | 190 nM |
| COc1cc(C(=O)NCc2nn(CCN3CCC(N4CCCC4)CC3)cc2-c2ccc(Cl)c(Cl)c2)cc(OC)c1OC | 770 nM |

| Structure (SMILES) | IC50 |
| --- | --- |
| Oc1ccc(CCNc2nc(NCCOc3cccc4ccccc34)nc(N3CCNCC3)n2)cc1 | 900 nM |
| CCC(C)CNC(=O)CN1CN(c2ccccc2)C2(CCN(C(=O)c3ccc(Br)cc3)CC2)C1=O (stereo unspecified) | 1070 nM |
| CC(C)c1ccc(NC(=O)c2ccc(CN3CCCN(Cc4cccc(O)c4)CC3)cc2)cc1 | 680 nM |
| CC(C)OC(=O)c1ccc(NC(=O)N[C@@H](Cc2ccc(O)cc2)C(=O)NC2C[C@H]3CC[C@@H](C2)N3Cc2ccccc2)cc1 (stereo partly specified) | 1080 nM |
| CC(C)CCN1CCC(Oc2ccc(NC(=O)c3cccs3)cc2Cl)C1 (stereo unspecified) | 1100 nM |
| COc1ccccc1CCNc1nc(C)cc(N[C@@H](Cc2ccccc2)C(=O)NCCCOC(C)C)n1 | 860 nM |
| Cc1cc(N)cc2[nH]c(-c3ccc(N)cc3)nc12 | 890 nM |
| CN(C)CCNC(=O)c1cc2c(-c3ccc(Cl)cc3)nn(C)c2s1 | 670 nM |
| CN1CCCC1CCNC(=O)[C@H](CC1CCCCC1)NC(=O)c1ccc(O)c(-c2ccc(Cl)c(Cl)c2)c1 (stereo partly specified) | 740 nM |
| CN1CCN(CC(=O)Nc2cccc(-c3ccc(-c4nc5ccc(C(F)(F)F)cc5[nH]4)s3)c2)CC1 | 310 nM |
| CCCCOc1ccc(N2C(N)=NC(N)=NC2(C)C)cc1 | 210 nM |
| O=C(NCc1ccc(Cl)c(Cl)c1)[C@H]1CNCCN1C(=O)c1ccccc1 | 950 nM |
| CCCNC(=O)CN1CN(c2ccccc2)C2(CCN(C(=O)c3ccc(C(C)(C)C)cc3)CC2)C1=O | 470 nM |
| Cc1ccc(N2CCc3c(-c4cc5cccnc5nc4C)cc(C)nc32)c(Cl)c1 | 580 nM |
| CCC1(CC)N=C(N)N=C(N)C1c1ccc(Cl)c(Cl)c1 (stereo unspecified) | 380 nM |
| CCc1cn2c3c(cc(C(=O)N[C@@H](Cc4cc(F)cc(F)c4)[C@H](O)CNC4CC4)cc13)N(C)S(=O)(=O)CC2 | 120 nM |
| N#Cc1cccc(NC(=O)Nc2ccc3c(c2)CCN(C2CCC2)CC3)c1 | 840 nM |
| NC1CCCN(Cc2ccc(-c3ccc(-c4nc5ccc(F)cc5[nH]4)s3)cc2)C1 (stereo unspecified) | 180 nM |
| Cc1ccc(NC(=O)c2cccc(CN3CCCN(CC4CCCCC4)CC3)c2)cc1F | 600 nM |
| COc1cc2nc(N3CCC(CNC(=O)/C=C/c4ccccc4F)CC3)nc(N)c2cc1OC | 580 nM |
| CCc1nc(N)nc(N)c1-c1ccc(F)c(F)c1 | 420 nM |
| c1cnc2ccc(NCc3ccc(-c4ccc(CNC5CCCC5)cc4)cc3)cc2c1 | 870 nM |
| COc1cc(NC(=O)Nc2ccc([N+](=O)[O-])cc2OC)c(OC)cc1Cl | 1470 nM |
| C=CC(=O)Nc1ccc(Cl)cc1C(O)c1ccccc1 (stereo unspecified) | 180 nM |
| O=C(c1cccs1)N(Cc1cccc(-c2ccc(CNC3CCCC3)cc2)c1)C1CCN(Cc2ccccc2)CC1 | 1130 nM |
| CCN(CC)S(=O)(=O)c1ccc(C=CC(=O)Nc2cc(Cl)ccc2N2CCOCC2)cc1 | 920 nM |

| Structure (SMILES) | IC50 |
| --- | --- |
| COc1ccc(CNC2CCN(C)CC2)cc1-c1ccc(S(=O)(=O)NCc2ccccc2)s1 | 230 nM |
| Cc1cc(N[C@@H](Cc2ccccc2)C(=O)NCCOc2ccccc2)nc(NCCc2ccccc2)n1 | 1030 nM |
| Fc1cccc2sc(Nc3nc(-c4ccccn4)cs3)nc12 | 910 nM |
| CCc1cn2c3c(cc(C(=O)N[C@@H](Cc4cccc(Cl)c4)[C@H](O)CNC4CCOCC4)cc13)N(C)S(=O)(=O)CC2 | 40 nM |
| Cc1cc(Nc2ccccc2)nc(Nc2ccccc2)n1 | 800 nM |
| COc1cccc(-c2cnc(N)c(-c3nc4ccc(C(F)(F)F)cc4[nH]3)c2)c1 | 650 nM |
| Cc1cc(N(CCN2CCCCC2)CCN2CCCCC2)nc(Nc2ccc(Cl)cc2)n1 | 270 nM |
| COc1ccc(CNC2Cc3ccccc3C2)cc1-c1ccc(S(=O)(=O)NCc2ccccc2)s1 | 830 nM |
| COc1ccc(-n2nc(C)c3c2NC(=O)CC3c2ccccc2OCc2ccccc2F)cc1 (stereo unspecified) | 900 nM |
| c1ccc(C2CCC(N3CCC(N4CCN(c5ccccc5)CC4)CC3)CC2)cc1 (stereo unspecified) | 760 nM |
| CC(C)N1CCN(C(=O)c2ccc(CNCCCN3CCN(c4cccc(Cl)c4Cl)CC3)s2)CC1 | 720 nM |
| CC(C)=C(C(=O)OCc1ccccc1)N1C(=O)[C@@H](NC(c2ccccc2)(c2ccccc2)c2ccccc2)[C@H]1[S@@](=O)CC(=O)OC(C)(C)C | 1020 nM |
| CS(=O)(=O)CCNc1cc(N2CCc3ncnc(Nc4ccc(OCc5cccc(F)c5)c(Cl)c4)c3C2)ncn1 | 870 nM |
| CCCCNS(=O)(=O)c1ccc(NC(=O)c2cc([N+](=O)[O-])ccc2Cl)cc1 | 900 nM |
| Cc1ccc(-c2nnc(Nc3ccc(C(=O)N4CCCCC4)cc3)c3ccccc23)cc1S(=O)(=O)NCC1CCCO1 (stereo unspecified) | 710 nM |
| CC(CN)OCn1cnc2c(N)ncnc21 (stereo unspecified) | 230 nM |
| CCOC(=O)C(NC(=O)Cc1ccccc1)C(C)C (stereo unspecified) | 290 nM |
| CS(=O)(=O)c1cccc(-c2cnc3[nH]cc(-c4cccc(CCN)c4)c3c2)c1 | 1560 nM |
| CC(=O)C1=NN(c2ccc(Cl)cc2)C(c2cccs2)N1c1ccccc1 (stereo unspecified) | 400 nM |
| Cc1ccccc1C1CCN(C2CCC(NC(=O)/C=C/c3cccc(Cl)c3)CC2)CC1 (stereo unspecified) | 890 nM |
| CCCN(C(=O)c1ccccc1C)c1nnc(-c2ccccc2C)s1 | 1110 nM |
| O=C(/C=C/c1ccc(Cl)c(Cl)c1)NCCCCCCN1CCN(C(=O)Nc2ccc(F)c(Cl)c2)CC1 | 940 nM |
| N#Cc1cccc(C(=O)Nc2ccc(-c3cccc(CN4CCCC4)c3)cc2)c1 | 710 nM |
